Test system: 777334-354-R2-J4-PDC tumor spheroids with HUVEC/MSC, viability
Experiment: Anticancer human tumor 777334-354-R2-J4-PDC patient-derived pancreatic adenocarcinoma cell line growth inhibition [GQUAD]
Conditions: for IC50: curve of first compound; for viability, T/C: stronger effect = lower value
How it was run: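 Viability of tumor cells grown as complex spheroids with endothelial and stromal cells, exposed to drug combinations. Top concentration at or near clinical Cmax (else 10 microM), diluted in half-log increments.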

[1] = second compound 0.0316 µM, first compound 0.0316 µM
[2] = second compound 0.0316 µM, first compound 0.316 µM
[3] = second compound 0.1 µM, first compound 0.0316 µM
[4] = second compound 0.1 µM, first compound 0.316 µM
[5] = second compound 0.316 µM, first compound 0.0316 µM
[6] = second compound 0.316 µM, first compound 0.316 µM
[7] = second compound 1 µM, first compound 0.0316 µM
[8] = second compound 1 µM, first compound 0.316 µM
[9] = second compound 3.16 µM, first compound 0.0316 µM
[10] = second compound 3.16 µM, first compound 0.316 µM
[11] = second compound 10 µM, first compound 0.0316 µM
[12] = second compound 10 µM, first compound 0.316 µM
[13] = second compound 0.0316 µM, first compound 0.000999 µM
[14] = second compound 0.0316 µM, first compound 0.00316 µM
[15] = second compound 0.0316 µM, first compound 0.00999 µM
[16] = second compound 0.0316 µM, first compound 0.0999 µM
[17] = second compound 0.1 µM, first compound 0.000999 µM
[18] = second compound 0.1 µM, first compound 0.00316 µM
[19] = second compound 0.1 µM, first compound 0.00999 µM
[20] = second compound 0.1 µM, first compound 0.0999 µM
[21] = second compound 0.316 µM, first compound 0.000999 µM
[22] = second compound 0.316 µM, first compound 0.00316 µM
[23] = second compound 0.316 µM, first compound 0.00999 µM
[24] = second compound 0.316 µM, first compound 0.0999 µM
[25] = second compound 1 µM, first compound 0.000999 µM
[26] = second compound 1 µM, first compound 0.00316 µM
[27] = second compound 1 µM, first compound 0.00999 µM
[28] = second compound 1 µM, first compound 0.0999 µM
[29] = second compound 3.16 µM, first compound 0.000999 µM
[30] = second compound 3.16 µM, first compound 0.00316 µM
[31] = second compound 3.16 µM, first compound 0.00999 µM
[32] = second compound 3.16 µM, first compound 0.0999 µM
[33] = second compound 10 µM, first compound 0.000999 µM
[34] = second compound 10 µM, first compound 0.00316 µM
[35] = second compound 10 µM, first compound 0.00999 µM
[36] = second compound 10 µM, first compound 0.0999 µM
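Note: spheroids exposed to compounds for 7 days before readout.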

## COc1cccc2c1C(=O)c1c(O)c3c(c(O)c1C2=O)CC(O)(C(=O)CO)CC3OC1CC(N)C(O)C(C)O1 (stereo unspecified) + Cc1cnc(CNC(=O)c2c(=O)c3ccc(N4CCCN(C)CC4)nc3n3c2sc2ccccc23)cn1
Second compound 0.0316 µM
  IC50: 878 nM
Second compound 0.1 µM
  IC50: 769 nM
Second compound 0.316 µM
  IC50: 1040 nM
Second compound 1 µM
  IC50: 869 nM
Second compound 3.16 µM
  IC50: 684 nM
Second compound 10 µM
  IC50: 399 nM
[1]
  viability, T/C: 88.3%
Second compound 0.0316 µM, first compound 0.1 µM
  viability, T/C: 87.2%
[2]
  viability, T/C: 81.8%
Second compound 0.0316 µM, first compound 1 µM
  viability, T/C: 44.3%
Second compound 0.0316 µM, first compound 3.16 µM
  viability, T/C: 23.4%
Second compound 0.0316 µM, first compound 10 µM
  viability, T/C: 11.9%
[3]
  viability, T/C: 83.8%
Second compound 0.1 µM, first compound 0.1 µM
  viability, T/C: 77.2%
[4]
  viability, T/C: 76.8%
Second compound 0.1 µM, first compound 1 µM
  viability, T/C: 40.7%
Second compound 0.1 µM, first compound 3.16 µM
  viability, T/C: 22.5%
Second compound 0.1 µM, first compound 10 µM
  viability, T/C: 10.7%
[5]
  viability, T/C: 73.5%
Second compound 0.316 µM, first compound 0.1 µM
  viability, T/C: 80.8%
[6]
  viability, T/C: 63.3%
Second compound 0.316 µM, first compound 1 µM
  viability, T/C: 52.1%
Second compound 0.316 µM, first compound 3.16 µM
  viability, T/C: 26.3%
Second compound 0.316 µM, first compound 10 µM
  viability, T/C: 6.61%
[7]
  viability, T/C: 63%
Second compound 1 µM, first compound 0.1 µM
  viability, T/C: 70.4%
[8]
  viability, T/C: 67.3%
Second compound 1 µM, first compound 1 µM
  viability, T/C: 45.4%
Second compound 1 µM, first compound 3.16 µM
  viability, T/C: 21.8%
Second compound 1 µM, first compound 10 µM
  viability, T/C: 4.42%
[9]
  viability, T/C: 64.2%
Second compound 3.16 µM, first compound 0.1 µM
  viability, T/C: 64.1%
[10]
  viability, T/C: 68%
Second compound 3.16 µM, first compound 1 µM
  viability, T/C: 40.9%
Second compound 3.16 µM, first compound 3.16 µM
  viability, T/C: 16%
Second compound 3.16 µM, first compound 10 µM
  viability, T/C: 0.58%
[11]
  viability, T/C: 57.3%
Second compound 10 µM, first compound 0.1 µM
  viability, T/C: 55.8%
[12]
  viability, T/C: 55.8%
Second compound 10 µM, first compound 1 µM
  viability, T/C: 35.3%
Second compound 10 µM, first compound 3.16 µM
  viability, T/C: 11.9%
Second compound 10 µM, first compound 10 µM
  viability, T/C: 0.28%

## CC[C@@]1(O)C(=O)OCc2c1cc1n(c2=O)Cc2cc3c(CN(C)C)c(O)ccc3nc2-1 + Cc1cnc(CNC(=O)c2c(=O)c3ccc(N4CCCN(C)CC4)nc3n3c2sc2ccccc23)cn1
Second compound 0.0316 µM
  IC50: 172 nM
Second compound 0.1 µM
  IC50: 241 nM
Second compound 0.316 µM
  IC50: 222 nM
Second compound 1 µM
  IC50: 233 nM
Second compound 3.16 µM
  IC50: 225 nM
Second compound 10 µM
  IC50: 78.7 nM
[13]
  viability, T/C: 90.1%
[14]
  viability, T/C: 79.8%
[15]
  viability, T/C: 95.2%
[1]
  viability, T/C: 80.7%
[16]
  viability, T/C: 59.4%
[2]
  viability, T/C: 39.7%
[17]
  viability, T/C: 102%
[18]
  viability, T/C: 74.7%
[19]
  viability, T/C: 83.1%
[3]
  viability, T/C: 66.8%
[20]
  viability, T/C: 60.8%
[4]
  viability, T/C: 45%
[21]
  viability, T/C: 73.8%
[22]
  viability, T/C: 76.3%
[23]
  viability, T/C: 76.7%
[5]
  viability, T/C: 70.1%
[24]
  viability, T/C: 59.3%
[6]
  viability, T/C: 46%
[25]
  viability, T/C: 64.7%
[26]
  viability, T/C: 74.8%
[27]
  viability, T/C: 76%
[7]
  viability, T/C: 69.5%
[28]
  viability, T/C: 57%
[8]
  viability, T/C: 47%
[29]
  viability, T/C: 56.8%
[30]
  viability, T/C: 67.7%
[31]
  viability, T/C: 62.2%
[9]
  viability, T/C: 63.3%
[32]
  viability, T/C: 54.9%
[10]
  viability, T/C: 47.4%
[33]
  viability, T/C: 56.1%
[34]
  viability, T/C: 57.9%
[35]
  viability, T/C: 60.2%
[11]
  viability, T/C: 53.2%
[36]
  viability, T/C: 47.8%
[12]
  viability, T/C: 38.9%

## CCc1c2c(nc3ccc(O)cc13)-c1cc3c(c(=O)n1C2)COC(=O)[C@]3(O)CC + CN(C)c1ccc(Nc2c3ccc(NC(=O)CCN4CCCC4)cc3nc3cc(NC(=O)CCN4CCCC4)ccc23)cc1
Second compound 0.0316 µM
  IC50: 5.23 nM
Second compound 0.1 µM
  IC50: 4.26 nM
Second compound 0.316 µM
  IC50: 5.24 nM
Second compound 1 µM
  IC50: 4.96 nM
Second compound 3.16 µM
  IC50: 3.16 nM
Second compound 10 µM
  IC50: 4.78 nM
[13]
  viability, T/C: 105%
[14]
  viability, T/C: 57.8%
[15]
  viability, T/C: 38.6%
[1]
  viability, T/C: 23.4%
[16]
  viability, T/C: 15.9%
[2]
  viability, T/C: 9.58%
[17]
  viability, T/C: 85.1%
[18]
  viability, T/C: 51.9%
[19]
  viability, T/C: 39.6%
[3]
  viability, T/C: 22.4%
[20]
  viability, T/C: 14.7%
[4]
  viability, T/C: 11.4%
[21]
  viability, T/C: 79.6%
[22]
  viability, T/C: 61.9%
[23]
  viability, T/C: 34.6%
[5]
  viability, T/C: 21.4%
[24]
  viability, T/C: 15.3%
[6]
  viability, T/C: 9.02%
[25]
  viability, T/C: 84.3%
[26]
  viability, T/C: 57%
[27]
  viability, T/C: 38.8%
[7]
  viability, T/C: 23.9%
[28]
  viability, T/C: 13.8%
[8]
  viability, T/C: 8.31%
[29]
  viability, T/C: 74.9%
[30]
  viability, T/C: 49.3%
[31]
  viability, T/C: 31.9%
[9]
  viability, T/C: 24.7%
[32]
  viability, T/C: 15.9%
[10]
  viability, T/C: 9.07%
[33]
  viability, T/C: 79.5%
[34]
  viability, T/C: 57.9%
[35]
  viability, T/C: 35.8%
[11]
  viability, T/C: 26.8%
[36]
  viability, T/C: 19.6%
[12]
  viability, T/C: 9.4%
